Source: the supplement of paper PMC10307832

Tests used:
Test in all cases: relative viability (nuclei count vs DMSO), 5 days (fraction); higher = more cells survive
[1] = compound: CN1C=C(C2=CC=CC=C21)/C=C\3/C4=C(C=CC=N4)NC3=O + Cc1nc(Nc2ncc(C(=O)Nc3c(C)cccc3Cl)s2)cc(N2CCN(CCO)CC2)n1 [Dasatinib] (partner 0.075 µM)
How it was run: (§1)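 Nuclei were stained with Hoechst during a one-step fixation (final 0.05% Triton X-100, 1% formaldehyde, 1 ug/ml Hoechst) carried out 5 days after dosing, then counted on 4× images. The cells, lung cancer lines in 1536-well plates, had been dosed by pin tool the day after seeding with one drug alone or a fixed anchor-drug dose plus five library-drug doses (not always all listed) in √10 steps. Relative viability is the nuclei count in treated wells divided by that in vehicle wells, and each value is the median of duplicate plates.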

[2] = compound: CN1C=C(C2=CC=CC=C21)/C=C\3/C4=C(C=CC=N4)NC3=O + C[C@@H](Oc1cc(-c2cnn(C3CCNCC3)c2)cnc1N)c1c(Cl)ccc(F)c1Cl [Crizotinib] (partner 1 µM)
How it was run: as §1

[3] = compound: CC(=O)Nc1cccc(-n2c(=O)n(C3CC3)c(=O)c3c(Nc4ccc(I)cc4F)n(C)c(=O)c(C)c32)c1 [Trametinib] + Nc1nc2[nH]cc(CCc3ccc(C(=O)N[C@@H](CCC(=O)O)C(=O)O)cc3)c2c(=O)[nH]1 [Pemetrexed] (partner 0.2 µM)
How it was run: as §1

[4] = compound: CN1C=C(C2=CC=CC=C21)/C=C\3/C4=C(C=CC=N4)NC3=O + CC(=O)c1c(C)c2cnc(Nc3ccc(N4CCNCC4)cn3)nc2n(C2CCCC2)c1=O [Palbociclib] (partner 0.5 µM)
How it was run: as §1

Cell Line: UMC-11
- relative viability ([1]; first compound 0.02 µM): 0.556
- relative viability ([1]; first compound 0.06325 µM): 0.449
- relative viability ([1]; first compound 0.2 µM): 0.367
- relative viability ([1]; first compound 0.6325 µM): 0.41
- relative viability ([1]; first compound 2 µM): 0.632
- relative viability ([2]; first compound 0.02 µM): 0.448
- relative viability ([2]; first compound 0.06325 µM): 0.543
- relative viability ([2]; first compound 0.2 µM): 0.578
- relative viability ([2]; first compound 0.6325 µM): 0.855
- relative viability ([2]; first compound 2 µM): 0.786
- relative viability ([3]; first compound 0.0025 µM): 0.804
- relative viability ([3]; first compound 0.007906 µM): 0.741
- relative viability ([3]; first compound 0.07906 µM): 0.719
- relative viability ([3]; first compound 0.25 µM): 0.701
- relative viability ([4]; first compound 0.02 µM): 0.3
- relative viability ([4]; first compound 0.06325 µM): 0.318
- relative viability ([4]; first compound 0.2 µM): 0.358
- relative viability ([4]; first compound 0.6325 µM): 0.344
- relative viability ([4]; first compound 2 µM): 0.332
